{"source": "the SangsterLogP compilation"}
{"smiles": "CCC=CCCOC(=O)C(C)c1ccc2cc(OC)ccc2c1", "note": "(centres undefined)", "values": [{"measurement": "logP", "value": 6.21}]}
{"smiles": "COc1ccc2cc(C(C)C(=O)OC(C)C)ccc2c1", "note": "(centres undefined)", "values": [{"measurement": "logP", "value": 4.98}]}
{"smiles": "COc1ccc2cc(C(C)C(=O)OCC(C)=O)ccc2c1", "note": "(centres undefined)", "values": [{"measurement": "logP", "value": 4.06}]}
{"smiles": "CCCCCCCCOC(=O)C(C)c1ccc2cc(OC)ccc2c1", "note": "(centres undefined)", "values": [{"measurement": "logP", "value": 7.66}]}
{"smiles": "COc1ccc2cc(C(C)C(=O)OC3CCCCC3)ccc2c1", "note": "(centres undefined)", "values": [{"measurement": "logP", "value": 5.82}]}
{"smiles": "CCCCCOC(=O)C(C)c1ccc2cc(OC)ccc2c1", "note": "(centres undefined)", "values": [{"measurement": "logP", "value": 6.02}]}
{"smiles": "COC(=O)C(C)c1ccc2cc(OC)ccc2c1", "note": "(centres undefined)", "values": [{"measurement": "logP", "value": 4.6}]}
{"smiles": "COc1ccc2cc(C(C)C(=O)OCC=C(C)CCC=C(C)C)ccc2c1", "note": "(centres undefined)", "values": [{"measurement": "logP", "value": 7.77}]}
{"smiles": "COc1ccc2cc(C(C)C(=O)OCCO)ccc2c1", "note": "(centres undefined)", "values": [{"measurement": "logP", "value": 3.05}]}
{"smiles": "CCCCCCOC(=O)C(C)c1ccc2cc(OC)ccc2c1", "note": "(centres undefined)", "values": [{"measurement": "logP", "value": 6.54}]}
{"smiles": "CCCCCCCOC(=O)C(C)c1ccc2cc(OC)ccc2c1", "note": "(centres undefined)", "values": [{"measurement": "logP", "value": 7.21}]}
{"smiles": "CC=CC=CCOC(=O)C(C)c1ccc2cc(OC)ccc2c1", "note": "(centres undefined)", "values": [{"measurement": "logP", "value": 6.31}]}
{"smiles": "COc1ccc2cc(C(C)C(=O)OCCOCCO)ccc2c1", "note": "(centres undefined)", "values": [{"measurement": "logP", "value": 3.79}]}
{"smiles": "CCOC(=O)C(C)c1ccc2cc(OC)ccc2c1", "note": "(centres undefined)", "values": [{"measurement": "logP", "value": 4.78}]}
{"smiles": "CCC#CCCOC(=O)C(C)c1ccc2cc(OC)ccc2c1", "note": "(centres undefined)", "values": [{"measurement": "logP", "value": 5.91}]}
{"smiles": "CCCOC(=O)C(C)c1ccc2cc(OC)ccc2c1", "note": "(centres undefined)", "values": [{"measurement": "logP", "value": 5.34}]}
{"smiles": "COc1ccc2cc(C(C)C(=O)OC3COC4C(O)COC34)ccc2c1", "note": "(centres undefined)", "values": [{"measurement": "logP", "value": 3.14}]}
{"smiles": "COc1ccc2cc(C(C)C(=O)OCCCO)ccc2c1", "note": "(centres undefined)", "values": [{"measurement": "logP", "value": 3.73}]}
{"smiles": "COc1ccc2cc(C(C)C(=O)OC3CCCCC3O)ccc2c1", "note": "(centres undefined)", "values": [{"measurement": "logP", "value": 4.71}]}
{"smiles": "COc1ccc2cc(C(C)C(=O)OCCCCCCO)ccc2c1", "note": "(centres undefined)", "values": [{"measurement": "logP", "value": 4.74}]}
{"smiles": "COc1ccc2cc(C(C)C(=O)OC3CCCCC3=O)ccc2c1", "note": "(centres undefined)", "values": [{"measurement": "logP", "value": 4.96}]}
{"smiles": "COc1ccc2cc(C(C)C(=O)Oc3ccccc3)ccc2c1", "note": "(centres undefined)", "values": [{"measurement": "logP", "value": 5.17}]}
{"smiles": "COc1ccc2cc(C(C)C(=O)OCC(C)O)ccc2c1", "note": "(centres undefined)", "values": [{"measurement": "logP", "value": 3.74}]}
{"smiles": "CCCCOC(=O)C(C)c1ccc2cc(OC)ccc2c1", "note": "(centres undefined)", "values": [{"measurement": "logP", "value": 5.81}]}
